# Marks after values point to notes of the source that are not given here.
# What was measured:
# human S1P1 = human S1P1 (Homo sapiens (Human), UniProt P21453); assay: S1P1 Binding Assay (33P-S1P radioligand competition); conditions: membranes of CHO cells expressing human S1P1, 0.03 nM 33P-S1P; rounded to two digits
# Experimental: Membranes were prepared from CHO cells expressing human S1P1. Cells were dissociated in buffer containing 20 mM HEPES, pH 7.5, 50 mM NaCl, 2 mM EDTA and Protease Inhibitor cocktail (Roche), and disrupted on ice using the Polytron homogenizer. The homogenate was centrifuged at 20,000 rpm (48,000 G) and the supernatant was discarded. The membrane pellets were resuspended in buffer containing 50 mM HEPES, pH 7.5, 100 mM NaCl, 1 mM MgCl2, 2 mM EDTA and stored in aliquots at −80° C. after protein concentration determination.
# Membranes (2 μg/well) and 0.03 nM final concentration of 33P-S1P ligand (1 mCi/ml, American Radiolabeled Chemicals) were added to the compound plates. Binding was performed for 45 minutes at room temperature, terminated by collecting the membranes onto GF/B filter plates, and radioactivity was measured by TOPCOUNT®. The competition data of the test compounds over a range of concentrations was plotted as percentage inhibition of radioligand specific binding. The IC50 is defined as the concentration of competing ligand needed to reduce specific binding by 50%.
# The results in Table A were rounded to two digits.
# [1] = molecular target: S1P1 (membranes from S1P1/CHO cells) (Homo sapiens (Human), UniProt P21453); assay: Receptor [35S] GTPγS Binding Assay, S1P1; assay type: biochemical; conditions: for EC50: S1P1/CHO membranes; for GTPγS S1P3/S1P1 (ratio of GTPγS S1P3 EC50 to GTPγS S1P1 EC50): calculated from Table B, S1P3 detection limit 31250 nM
# Experimental: (§1) Receptor [35S] GTPγS Binding Assays
# (§2) Compounds were loaded in a 384 FALCON® v-bottom plate (0.5 μl/well in a 3-fold dilution). Membranes prepared from S1P1/CHO cells or EDG3-Ga15-bla HEK293T cells were added to the compound plate (40 μl/well, final protein 3 μg/well) with MULTIDROP®. [^35S]GTP (1250 Ci/mmol, Perkin Elmer) was diluted in assay buffer: 20 mM HEPES, pH7.5, 10 mM MgCl2, 150 mM NaCl, 1 mM EGTA, 1 mM DTT, 10 μM GDP, 0.1% fatty acid free BSA, and 10 μg/ml Saponin to 0.4 nM. 40 μl of the [^35S] GTP solution was added to the compound plate with a final concentration of 0.2 nM. The reaction was kept at room temperature for 45 min. At the end of incubation, all the mixtures in the compound plate were transferred to a 384 well FB filter plates via GPCR robot system. The filter plate was washed with water 4 times by using the modified manifold Embla plate washer and dried at 60° C. for 45 min. 30 μl of MicroScint 20 scintillation fluid was added to each well for counting at Packard TOPCOUNT®. EC50 is defined as the agonist concentration that corresponds to 50% of the Ymax (maximal response) obtained for each individual compound tested.
# A larger value for the GTPγS S1P3 EC50 value indicated less activity in the GTPγS S1P3 binding assay.
# [2] = molecular target: S1P3 (membranes from EDG3-Ga15-bla HEK293T cells) (Homo sapiens (Human), UniProt Q99500); assay: Receptor [35S] GTPγS Binding Assay, S1P3; assay type: biochemical; conditions: detection limit 31250 nM
# Experimental: as §1, §2
# A smaller value for GTPγS S1P1 EC50 value indicated greater activity for the compound in the GTPγS S1P1 binding assay. A larger value for the GTPγS S1P3 EC50 value indicated less activity in the GTPγS S1P3 binding assay.
# [3] = test system: circulating blood lymphocytes; assay: Blood Lymphocyte Reduction Assay (BLR) in Rodents; assay type: in vivo; conditions: Lewis rats, oral, vs vehicle group
# Experimental: Blood Lymphocyte Reduction Assay (BLR) in Rodents
# Lewis rats were dosed orally with test article (as a solution or suspension in the vehicle) or vehicle alone (polyethylene glycol 300, “PEG300”). Blood was drawn at 4 hr by retro-orbital bleeding. Blood lymphocyte counts were determined on an ADVIA® 120 Hematology Analyzer (Siemens Healthcare Diagnostics). The results were measured as a reduction in the percentage of circulating lymphocytes as compared to the vehicle treated group at the 4 hr measurement. The results represent the average results of all animals within each treatment group (n=3-4).
# The following examples were tested in the Blood Lymphocyte Reduction assay (BLR) described herein above and the results are shown in Table D for rats.
# Sequence of human S1P1 (P21453 whole entry): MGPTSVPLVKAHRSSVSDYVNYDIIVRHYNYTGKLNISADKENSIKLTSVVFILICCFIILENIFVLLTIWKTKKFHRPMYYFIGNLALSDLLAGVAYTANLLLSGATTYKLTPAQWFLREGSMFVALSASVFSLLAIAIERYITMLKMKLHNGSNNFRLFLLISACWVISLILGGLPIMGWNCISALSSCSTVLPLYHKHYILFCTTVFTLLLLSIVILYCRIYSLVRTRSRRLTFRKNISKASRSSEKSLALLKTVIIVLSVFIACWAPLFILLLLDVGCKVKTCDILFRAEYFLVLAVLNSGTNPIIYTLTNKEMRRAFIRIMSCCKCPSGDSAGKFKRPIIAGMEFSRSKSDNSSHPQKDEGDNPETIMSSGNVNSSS
# Sequence of S1P1 (membranes from S1P1/CHO cells) (P21453 whole entry): as above
# Sequence of S1P3 (membranes from EDG3-Ga15-bla HEK293T cells) (Q99500 whole entry): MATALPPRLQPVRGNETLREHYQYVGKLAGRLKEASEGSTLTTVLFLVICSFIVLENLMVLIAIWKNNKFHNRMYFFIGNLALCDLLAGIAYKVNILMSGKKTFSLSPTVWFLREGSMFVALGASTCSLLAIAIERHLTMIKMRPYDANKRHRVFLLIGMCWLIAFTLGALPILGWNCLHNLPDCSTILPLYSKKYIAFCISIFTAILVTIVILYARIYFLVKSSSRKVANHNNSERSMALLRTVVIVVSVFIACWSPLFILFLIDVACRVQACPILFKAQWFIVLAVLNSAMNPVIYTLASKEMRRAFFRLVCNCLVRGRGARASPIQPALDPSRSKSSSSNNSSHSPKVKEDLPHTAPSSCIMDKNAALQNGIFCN
SMILES,IC50 (human S1P1) [nM],EC50 [1] [nM],GTPγS S1P3/S1P1 (ratio of GTPγS S1P3 EC50 to GTPγS S1P1 EC50) [1],EC50 [2] [nM],% Reduction in Lymphocytes at 4 hr. ([3]; 0.5 mg/kg) [%],% Reduction in Lymphocytes at 4 hr. ([3]; 3 mg/kg) [%]
"O=C(O)C1(CN[C@@H]2COc3cc(-c4noc(-c5onc(-c6ccccc6)c5C(F)(F)F)n4)ccc3[C@@H]2O)CCC1 [Example 41, 1-(((3R,4S)-4-hydroxy-7-(5-(3-phenyl-4-(trifluoromethyl)isoxazol-5-yl)-1,2,4-oxadiazol-3-yl)chroman-3-ylamino)methyl)cyclobutanecarboxylic acid]",20,16,510,8400,11,
"O=C(O)C1(CN[C@@H]2COc3cc(-c4noc(-c5onc(-c6ccccc6)c5C(F)(F)F)n4)ccc3[C@@H]2O)CCCCC1 [Example 39, 1-(((3R,4S)-4-hydroxy-7-(5-(3-phenyl-4-(trifluoromethyl)isoxazol-5-yl)-1,2,4-oxadiazol-3-yl)chroman-3-ylamino)methyl)cyclohexanecarboxylic acid]",541,85,> 370*,> 31000,,
"CCOC(=O)C1CCCC(N[C@@H]2COc3cc(-c4noc(-c5onc(-c6ccccc6)c5C(F)(F)F)n4)ccc3[C@@H]2O)C1 (relative stereo) [Example 13, ethyl 3-((3R*,4S*)-4-hydroxy-7-(5-(3-phenyl-4-(trifluoromethyl)isoxazol-5-yl)-1,2,4-oxadiazol-3-yl)chroman-3-ylamino)cyclohexanecarboxylate]",630,160,> 200*,> 31000,,
"N[C@@H]1COc2cc(-c3noc(-c4onc(-c5ccccc5)c4C(F)(F)F)n3)ccc2[C@H]1O (racemic) [Example 4, (3R*,4R*)-3-amino-7-(5-(3-phenyl-4-(trifluoromethyl)isoxazol-5-yl)-1,2,4-oxadiazol-3-yl)chroman-4-ol]",23,80,,13000,,
"O=C(O)[C@@H]1CCC[C@@H](N[C@@H]2COc3cc(-c4noc(-c5onc(-c6ccccc6)c5C(F)(F)F)n4)ccc3[C@@H]2O)C1 [Example 65, (1R,3R)-3-((3R,4S)-4-hydroxy-7-(5-(3-phenyl-4-(trifluoromethyl)isoxazol-5-yl)-1,2,4-oxadiazol-3-yl)chroman-3-ylamino)cyclohexanecarboxylic acid]",6.6,1.1,9600,11000,55,
"N[C@@H]1COc2cc(-c3noc(-c4onc(-c5ccccc5)c4C(F)(F)F)n3)ccc2[C@H]1O (relative stereo) [Example 4, (3R*,4R*)-3-amino-7-(5-(3-phenyl-4-(trifluoromethyl)isoxazol-5-yl)-1,2,4-oxadiazol-3-yl)chroman-4-ol]",,,160,,,
"N[C@@H]1COc2cc(-c3noc(-c4onc(-c5ccccc5)c4C(F)(F)F)n3)ccc2[C@@H]1O [Example 9, (3R,4S)-3-Amino-7-(5-(3-phenyl-4-(trifluoromethyl)isoxazol-5-yl)-1,2,4-oxadiazol-3-yl)chroman-4-ol]",39,33,260,8600,,
"O=C(O)CN[C@@H]1COc2cc(-c3noc(-c4onc(-c5ccccc5)c4C(F)(F)F)n3)ccc2[C@@H]1O [Example 68, 2-((3R,4S)-4-hydroxy-7-(5-(3-phenyl-4-(trifluoromethyl)isoxazol-5-yl)-1,2,4-oxadiazol-3-yl)chroman-3-ylamino)acetic acid]",3.8,5.4,960,5200,,
"O=C(O)[C@H]1CCC[C@H](N[C@@H]2COc3cc(-c4noc(-c5onc(-c6ccccc6)c5C(F)(F)F)n4)ccc3[C@@H]2O)C1 [Example 57, (1S,3S)-3-((3R,4S)-4-hydroxy-7-(5-(3-phenyl-4-(trifluoromethyl)isoxazol-5-yl)-1,2,4-oxadiazol-3-yl)chroman-3-ylamino)cyclohexanecarboxylic acid]",0.7,1,7300,7300,69,
"O=C(O)CCN[C@H]1COc2cc(-c3noc(-c4onc(-c5ccccc5)c4C(F)(F)F)n3)ccc2[C@@H]1O (racemic) [Example 5, 3-((3R*,4R*)-4-hydroxy-7-(5-(3-phenyl-4-(trifluoromethyl)isoxazol-5-yl)-1,2,4-oxadiazol-3-yl)chroman-3-ylamino)propanoic acid]",,,,25000,,
"O=C(O)[C@H]1C[C@@H](N[C@H]2COc3cc(-c4noc(-c5onc(-c6ccccc6)c5C(F)(F)F)n4)ccc3[C@H]2O)C1 [Example 25, (1R,3S)-3-((3S,4R)-4-hydroxy-7-(5-(3-phenyl-4-(trifluoromethyl)isoxazol-5-yl)-1,2,4-oxadiazol-3-yl)chroman-3-ylamino)cyclobutanecarboxylic acid]",,,,12000,,93
"O=C(O)C1(CN[C@@H]2COc3cc(-c4noc(-c5onc(-c6ccccc6)c5C(F)(F)F)n4)ccc3[C@@H]2O)CC1 [Example 30, 1-(((3R,4S)-4-hydroxy-7-(5-(3-phenyl-4-(trifluoromethyl)isoxazol-5-yl)-1,2,4-oxadiazol-3-yl)chroman-3-ylamino)methyl)cyclopropanecarboxylic acid]",13,6.5,1200,8000,,
"O=C(O)CC1CCCN([C@@H]2COc3cc(-c4noc(-c5onc(-c6ccccc6)c5C(F)(F)F)n4)ccc3[C@@H]2O)C1 (single isomer, unassigned) [Example 50]",57,27,870,24000,,
"O=C(O)CCN[C@@H]1COc2cc(-c3noc(-c4onc(-c5ccccc5)c4C(F)(F)F)n3)ccc2[C@@H]1O [Example 53, 3-((3R,4S)-4-Hydroxy-7-(5-(3-phenyl-4-(trifluoromethyl)isoxazol-5-yl)-1,2,4-oxadiazol-3-yl)chroman-3-ylamino)propanoic acid]",,,,22000,,

# — patent US8629282B2, “Heterocyclic compounds as S1P1 agonists for the treatment of autoimmune and vascular diseases” (Bristol-Myers Squibb Company, priority 2010, dated 2014)
